viability, T/C and IC50 data for six compounds are collected here from PubChem BioAssay AID2060326 (Molecular Pharmacology Branch, DTP, NCI, 2025).

Several values for one entry are separate records, joined by “and”; a condition that tells them apart may be missing. Equal entries are not always repeated.

This assay concerns MDA-MB-468 multi-cell spheroids, viability. As to the kind of experiment: Anticancer human tumor MDA-MB-468 cell line growth inhibition [IpAb].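 As to all read-outs here: spheroids exposed to agents for seven days.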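 As to viability, T/C: 100% = DMSO vehicle control viability.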 The settings on record: for viability, T/C: stronger effect = lower value. The method in brief:
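Spheroids of 60% malignant cells, 25% HUVEC and 15% MSC were exposed to targeted agents combined with ipatasertib or abemaciclib. Doses started at or near clinical Cmax (10 microM when unknown) and fell in half-log steps.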

[1] abbreviates: curve of first compound, second compound 0.1 µM.
[2] abbreviates: curve of first compound, second compound 0.316 µM.
Setting [3] is: curve of first compound, second compound 1 µM.
[4] abbreviates: curve of first compound, second compound 3.16 µM.
The mark [5] stands for this setting: curve of first compound, second compound 10 µM.
The mark [6] stands for this setting: second compound 0.1 µM, first compound 0.0316 µM.
The mark [7] stands for this setting: second compound 0.1 µM, first compound 0.1 µM.
[8] abbreviates: second compound 0.316 µM, first compound 0.0316 µM.
[9] abbreviates: second compound 0.316 µM, first compound 0.1 µM.
The mark [10] stands for this setting: second compound 1 µM, first compound 0.0316 µM.
The mark [11] stands for this setting: second compound 1 µM, first compound 0.1 µM.
Where [12] appears, read: second compound 3.16 µM, first compound 0.0316 µM.
The mark [13] stands for this setting: second compound 3.16 µM, first compound 0.1 µM.
Setting [14] is: second compound 10 µM, first compound 0.0316 µM.
The mark [15] stands for this setting: second compound 10 µM, first compound 0.1 µM.

As a reminder, the viability, T/C is the result in the treated group divided by that in the control group, in per cent. What is called IC50 is the concentration at which inhibition is half-maximal. As to `C=CCn1c(=O)c2cnc(Nc3ccc(N4CCN(C)CC4)cc3)nc2n1-c1cccc(C(C)(C)O)n1`, the viability, T/C runs as follows: (compound 0.0316 µM) 80.6% and 99.8%; (compound 0.1 µM) 94.4% and 96.1%; (compound 0.316 µM) 77.9% and 78.9%; (compound 1 µM) 6.3% and 7.75%; (compound 3.16 µM) 3.1% and 3.7%; (compound 10 µM) 2.62% and 3.3%. Also, the IC50 (curve of compound) is 495 nM and 505 nM.

In the case of `CCCS(=O)(=O)Nc1ccc(F)c(C(=O)c2c[nH]c3ncc(-c4ccc(Cl)cc4)cc23)c1F`, the viability, T/C runs as follows: (compound 0.0316 µM) 99.5% and 107%; (compound 0.1 µM) 99% and 91.6%; (compound 0.316 µM) 95% and 103%; (compound 1 µM) 100% and 109%; (compound 3.16 µM) 97.5% and 106%; (compound 10 µM) 66.3% and 75.8%. For the same compound, the IC50 (curve of compound) is > 10000 nM.

`C=CC(=O)N1CCN(c2nc(=O)n(-c3c(C)ccnc3C(C)C)c3nc(-c4c(O)cccc4F)c(F)cc23)C(C)C1` (stereo unspecified): the viability, T/C reads like this: (compound 0.0316 µM) 90.5% and 115%; (compound 0.1 µM) 103% and 119%; (compound 0.316 µM) 121% and 129%; (compound 1 µM) 105%; (compound 3.16 µM) 93.5% and 110%; (compound 10 µM) 35.1% and 37.1%. For the same compound, the IC50 (curve of compound) is 7490 nM and 8200 nM.

Consider `CC(C)n1nc(-c2ccc3oc(N)nc3c2)c2c(N)ncnc21` + CC(C)NCC(C(=O)N1CCN(c2ncnc3c2C(C)CC3O)CC1)c1ccc(Cl)cc1, for which the IC50 is 5.15 nM under setting [1]; 2.36 nM under setting [2]; < 0.316 nM under setting [3]; < 0.316 nM under setting [4]; < 0.316 nM under setting [5]. In addition, the viability, T/C (second compound 0.1 µM, first compound 0.000316 µM) was 76.6%; the viability, T/C (second compound 0.1 µM, first compound 0.001 µM) was 72.1%; the viability, T/C (second compound 0.1 µM, first compound 0.00316 µM) is 58.3%; the viability, T/C (second compound 0.1 µM, first compound 0.01 µM) was 38.7%; the viability, T/C under setting [6] is 15.8%; the viability, T/C under setting [7] was 7.82%. The viability, T/C by setting is: (second compound 0.316 µM, first compound 0.000316 µM) 59%; (second compound 0.316 µM, first compound 0.001 µM) 54.5%; (second compound 0.316 µM, first compound 0.00316 µM) 48.6%; (second compound 0.316 µM, first compound 0.01 µM) 23.4%; under setting [8], 9.26%; under setting [9], 5.3%. Further, the viability, T/C reads like this: (second compound 1 µM, first compound 0.000316 µM) 47.6%; (second compound 1 µM, first compound 0.001 µM) 41%; (second compound 1 µM, first compound 0.00316 µM) 31.1%; (second compound 1 µM, first compound 0.01 µM) 11.3%; under setting [10], 5.17%; under setting [11], 3.13%. The viability, T/C is, setting by setting: (second compound 3.16 µM, first compound 0.000316 µM) 31.4%; (second compound 3.16 µM, first compound 0.001 µM) 25.4%; (second compound 3.16 µM, first compound 0.00316 µM) 16.8%; (second compound 3.16 µM, first compound 0.01 µM) 5.94%; under setting [12], 2.41%; under setting [13], 1.21%. The viability, T/C is 15.7% (second compound 10 µM, first compound 0.000316 µM); 14.3% (second compound 10 µM, first compound 0.001 µM); 7.69% (second compound 10 µM, first compound 0.00316 µM); 3.03% (second compound 10 µM, first compound 0.01 µM); 0.6% under setting [14]; 0.38% under setting [15].

`Cn1cnc2c(F)c(Nc3ccc(Br)cc3Cl)c(C(=O)NOCCO)cc21` + CC(C)NCC(C(=O)N1CCN(c2ncnc3c2C(C)CC3O)CC1)c1ccc(Cl)cc1: the concentration for half-maximal inhibition (IC50) runs as follows: under setting [1], 435 nM; under setting [2], 54.8 nM; under setting [3], < 9.49 nM; under setting [4], < 9.49 nM; under setting [5], < 9.49 nM. For the same compound, the viability, T/C is 72.6% (second compound 0.1 µM, first compound 0.00949 µM); 72.2% (second compound 0.1 µM, first compound 0.03 µM); 63.4% (second compound 0.1 µM, first compound 0.0949 µM); 53.6% (second compound 0.1 µM, first compound 0.3 µM); 41.2% (second compound 0.1 µM, first compound 0.949 µM); 21.2% (second compound 0.1 µM, first compound 3 µM). Also, the viability, T/C runs as follows: (second compound 0.316 µM, first compound 0.00949 µM) 66.3%; (second compound 0.316 µM, first compound 0.03 µM) 49%; (second compound 0.316 µM, first compound 0.0949 µM) 46.7%; (second compound 0.316 µM, first compound 0.3 µM) 35%; (second compound 0.316 µM, first compound 0.949 µM) 28.8%; (second compound 0.316 µM, first compound 3 µM) 8.58%. Further, the viability, T/C (second compound 1 µM, first compound 0.00949 µM) is 50.4%; the viability, T/C (second compound 1 µM, first compound 0.03 µM) is 38.7%; the viability, T/C (second compound 1 µM, first compound 0.0949 µM) is 41.4%; the viability, T/C (second compound 1 µM, first compound 0.3 µM) is 24.2%; the viability, T/C (second compound 1 µM, first compound 0.949 µM) was 16.6%; the viability, T/C (second compound 1 µM, first compound 3 µM) was 3.5%. Besides, the viability, T/C (second compound 3.16 µM, first compound 0.00949 µM) was 34.8%; the viability, T/C (second compound 3.16 µM, first compound 0.03 µM) is 28.4%; the viability, T/C (second compound 3.16 µM, first compound 0.0949 µM) was 22.2%; the viability, T/C (second compound 3.16 µM, first compound 0.3 µM) was 18%; the viability, T/C (second compound 3.16 µM, first compound 0.949 µM) was 5.62%; the viability, T/C (second compound 3.16 µM, first compound 3 µM) is 0.63%. Moreover, the viability, T/C was 13.7% (second compound 10 µM, first compound 0.00949 µM); 13.5% (second compound 10 µM, first compound 0.03 µM); 7.27% (second compound 10 µM, first compound 0.0949 µM); 3.11% (second compound 10 µM, first compound 0.3 µM); 0.84% (second compound 10 µM, first compound 0.949 µM); 0.43% (second compound 10 µM, first compound 3 µM).

Take `C=CC(=O)N1CCN(c2nc(=O)n(-c3c(C)ccnc3C(C)C)c3nc(-c4c(O)cccc4F)c(F)cc23)C(C)C1` (stereo unspecified) + CC(C)NCC(C(=O)N1CCN(c2ncnc3c2C(C)CC3O)CC1)c1ccc(Cl)cc1: the half-maximal inhibitory concentration (IC50) under setting [1] was 7040 nM; the concentration for half-maximal inhibition (IC50) under setting [2] stood at 4930 nM; the IC50 under setting [3] turned out to be 4170 nM; the IC50 under setting [4] is < 31.6 nM; the 50% inhibitory concentration (IC50) under setting [5] was < 31.6 nM. Besides, the viability, T/C runs as follows: under setting [6], 115%; under setting [7], 123%; (second compound 0.1 µM, first compound 0.316 µM) 118%; (second compound 0.1 µM, first compound 1 µM) 105%; (second compound 0.1 µM, first compound 3.16 µM) 78.2%; (second compound 0.1 µM, first compound 10 µM) 37.8%. Moreover, the viability, T/C under setting [8] is 94.4%; the viability, T/C under setting [9] was 69.8%; the viability, T/C (second compound 0.316 µM, first compound 0.316 µM) was 68.4%; the viability, T/C (second compound 0.316 µM, first compound 1 µM) is 71.6%; the viability, T/C (second compound 0.316 µM, first compound 3.16 µM) is 67.3%; the viability, T/C (second compound 0.316 µM, first compound 10 µM) is 27.4%. Moreover, the viability, T/C by setting is: under setting [10], 64.5%; under setting [11], 55.9%; (second compound 1 µM, first compound 0.316 µM) 62.4%; (second compound 1 µM, first compound 1 µM) 57.6%; (second compound 1 µM, first compound 3.16 µM) 59.8%; (second compound 1 µM, first compound 10 µM) 19.2%. For the same compound, the viability, T/C is 42.3% under setting [12]; 41.2% under setting [13]; 44.5% (second compound 3.16 µM, first compound 0.316 µM); 39.6% (second compound 3.16 µM, first compound 1 µM); 29.6% (second compound 3.16 µM, first compound 3.16 µM); 8.37% (second compound 3.16 µM, first compound 10 µM). In addition, the viability, T/C reads like this: under setting [14], 19.5%; under setting [15], 22.1%; (second compound 10 µM, first compound 0.316 µM) 20.5%; (second compound 10 µM, first compound 1 µM) 19.3%; (second compound 10 µM, first compound 3.16 µM) 13.8%; (second compound 10 µM, first compound 10 µM) 5.04%.
